US6451839B1, “Indole sPLA2 inhibitors” (Eli Lilly and Company, priority 1998, dated 2002)

Target: T1, recombinant human secreted phospholipase A2 (Homo sapiens, UniProt P14555)
T1 sequence (P14555 21-144): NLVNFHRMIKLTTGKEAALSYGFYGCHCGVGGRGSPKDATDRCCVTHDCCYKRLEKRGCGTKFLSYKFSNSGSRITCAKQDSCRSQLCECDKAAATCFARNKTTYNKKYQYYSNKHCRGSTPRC
Assay: chromogenic assay of recombinant human secreted phospholipase A2 inhibition
Format: biochemical
Conditions: diheptanoyl thio-PC substrate, pH 7.5, 40° C. for 30 minutes, absorbance at 405 nanometers, triplicate; read-out: Inhibition of human secreted PLA2 IC50 ± mean deviation
Text: The following chromogenic assay procedure was used to identify and evaluate inhibitors of recombinant human secreted phospholipase A2. The assay described herein has been adapted for high volume screening using 96 well microtiter plates. A general description of this assay method is found in the article, “Analysis of Human Synovial Fluid Phospholipase A2 on Short Chain Phosphatidylcholine-Mixed Micelles: Development of a Spectrophotometric Assay Suitable for a Microtiterplate Reader”, by Laure J. Reynolds, Lori L. Hughes, and Edward A Dennis, Analytical Biochemistry, 204, pp. 190-197, 1992 (the disclosure of which is incorporated herein by reference):
RACEMIC DIHEPTANOYL THIO—PC
racemic 1,2-bis(heptanoylthio)-1,2-dideoxy-sn-glycero-3-phosphorylcholine
The reaction mixture thus obtained contains lmM diheptanoly thio-PC substrate, 0.29 mm Triton X-100™ detergent, and 0.12 mm DTMB in a buffered aqueous solution at pH 7.5.
1. Add 0.2 ml reaction mixture to all wells;
2. Add 10 ul test compound (or solvent blank) to appropriate wells, mix 20 seconds;
3. Add 50 nanograms of sPLA2 (10 microliters) to appropriate wells;
4. Incubate plate at 40° C. for 30 minutes;
5. Read absorbance of wells at 405 nanometers with an automatic plate reader.
All compounds were tested in triplicate. Typically, compounds were tested at a final concentration of 5 ug/ml. […] Lack of color development at 405 nanometers evidenced inhibition. Compounds initially found to be active were reassayed to confirm their activity and, if sufficiently active, IC50 values were determined. […] In all cases, % inhibition measured at 405 nanometers generated by enzyme reactions containing inhibitors relative to the uninhibited control reactions was determined. Each sample was titrated in triplicate and result values were averaged for plotting and calculation of IC50 values. IC50 were determined by plotting log concentration versus inhibition values in the range from 10-90% inhibition.

Compound	IC50
CCc1c(NC(=O)CBr)c2c(OCC(=O)O)cccc2n1Cc1ccccc1 [Example 4, [[3-(Bromo)acetamido-2-ethyl-1-(phenylmethyl)-1H-indol-4-yl]oxy]acetic acid]	45 µM
CCc1c(NC(N)=O)c2c(OCC(=O)O)cccc2n1Cc1ccccc1 [Example 1, [[2-Ethyl-1-(phenylmethyl)-3-ureido-1H-indol-4-yl]oxy]acetic acid]	0.049 µM
CCc1c(NC(N)=O)c2c(OCC(=O)O)cccc2n1Cc1ccccc1Br [Example 8, [[2-ethyl-1-(2-bromo-phenylmethyl)-3-ureido-1H-indol-4-yl]oxy]acetic acid]	0.074 µM
CCc1c(NC(=O)C(F)(F)F)c2c(OCC(=O)O)cccc2n1Cc1ccccc1 [Example 3, [[3-trifluoroacetamido-2-ethyl-1-(phenylmethyl)-1H-indol-4-yl]oxy]acetic acid]	51 µM
CCc1c(NC(C)=O)c2c(OCC(=O)O)cccc2n1Cc1ccccc1 [Example 2, [[3-Acetamido-2-ethyl-1-(phenylmethyl)-1H-indol-4-yl]oxy]acetic acid]	65 µM
CCc1c(NC(=O)C(N)=O)c2c(OCC(=O)O)cccc2n1Cc1ccccc1 [Example 6, [[2-ethyl-3-oxamide-1-(phenylmethyl)-1H-indol-4-yl]oxy]acetic acid]	13 µM
CCc1c(NC(N)=S)c2c(OCC(=O)O)cccc2n1Cc1ccccc1 [Example 5, [[2-Ethyl-1-(phenylmethyl)-3-thioureido-1H-indol-4-yl]oxy]acetic acid]	6.8 µM
CCc1c(NC(N)=O)c2c(OCC(=O)O)cccc2n1Cc1ccccc1-c1ccc(F)cc1 [Example 9, [[2-ethyl-1-(2-(4-fluorophenyl)-phenylmethyl)-3-ureido-1H-indol-4-yl]oxy]acetic acid]	0.017 µM
CCc1c(NC(N)=O)c2c(OCC(=O)O)cccc2n1Cc1ccccc1-c1ccccc1 [Example 7, [[2-ethyl-1-(2-phenyl-phenylmethyl)-3-ureido-1H-indol-4-yl]oxy]acetic acid]	0.021 µM
